Data taken from patent US20080132505A1 (Glaxo Group Limited, priority 2004, published 2008).
Read-outs that look alike come from different tables or passages of the source.

Molecular target: human cannabinoid CB2 receptor (Homo sapiens, UniProt P34972)
Experiment: Cannabinoid CB2 receptor agonist activity (yeast reporter assay, FDGlu fluorescence)
Format: cell-based
Settings: for Emax: read-out: efficacy value (Emax relative to HU210) at the cloned human cannabinoid CB2 receptor
Summary of the method: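 S. cerevisiae MMY23 expressing human CB2 with a Gpa1/Gαi3 chimeric G-protein, grown 24 h at 30 °C with agonist (1% DMSO) in selective media containing 10 mM 3-aminotriazole and FDGlu, pH 7.0. Fluorescein fluorescence (485/535 nm) fitted by four-parameter curve; Emax and EMR relative to HU210.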

[1] = EC50 value at the cloned human cannabinoid CB2 receptor
[2] = read-out: EC50 value at the cloned human cannabinoid CB2 receptor

human cannabinoid CB2 receptor, sequence (P34972 whole entry): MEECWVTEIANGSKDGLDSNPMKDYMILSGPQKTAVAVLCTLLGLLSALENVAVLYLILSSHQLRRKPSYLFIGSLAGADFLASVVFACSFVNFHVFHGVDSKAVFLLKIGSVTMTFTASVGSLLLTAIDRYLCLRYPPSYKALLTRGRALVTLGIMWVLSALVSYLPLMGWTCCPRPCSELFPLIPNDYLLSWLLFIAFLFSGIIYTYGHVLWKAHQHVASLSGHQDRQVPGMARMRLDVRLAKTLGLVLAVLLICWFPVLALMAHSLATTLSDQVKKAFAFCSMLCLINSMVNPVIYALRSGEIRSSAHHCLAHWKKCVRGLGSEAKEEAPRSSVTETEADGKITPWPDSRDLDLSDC

SMILES	EC50 [1] [nM]	Emax [%]	EC50 [2] [nM]
O=C(NCC1CCOCC1)c1cnc(Nc2ccc(Cl)c(Cl)c2)nc1C(F)(F)F [Example 250, 2-(3,4-Dichlorophenylamino)-4-trifluoromethylpyrimidine-5-carboxylic acid (tetrahydro-pyran-4-ylmethyl)-amide]	20 to 300	> 50	
O=C(NCC1CCCC1)c1cnc(Nc2ccccc2)nc1C(F)(F)F [Example 251, 2-(Phenylamino)-4-trifluoromethyl-pyrimidine-5-carboxylic acid cyclopentylmethyl-amide]	20 to 300	> 50	
O=C(NCC1CCC1)c1cnc(Nc2cccc(C(F)(F)F)c2F)nc1C(F)(F)F [Example 252, 2-(2-Fluoro-3-trifluoromethyl-phenylamino)-4-trifluoromethyl-pyrimidine-5-carboxylic acid cyclobutylmethyl-amide]	20 to 300	> 50	
Cc1cc(Cl)ccc1Nc1ncc(C(=O)NCC2CCC2)c(C(F)(F)F)n1 [Example 253, 2-(2-Methyl-4-chloro-phenylamino)-4-trifluoromethyl-pyrimidine-5-carboxylic acid cyclobutylmethyl-amide]	20 to 300	> 50	
O=C(NCC1CCOCC1)c1cnc(Nc2ccc(Br)cc2C(F)(F)F)nc1C(F)(F)F [Example 254, 2-(2-Trifluoromethyl-4-bromo-phenylamino)-4-trifluoromethyl-pyrimidine-5-carboxylic acid (tetrahydro-pyran-4-ylmethyl)-amide]	20 to 300	> 50	
O=C(NCC1CCSCC1)c1cnc(Nc2cccc(Cl)c2)nc1C(F)(F)F [Example 255, 2-(3-Chlorophenylamino)-4-trifluoromethyl-pyrimidine-5-carboxylic acid (tetrahydrothiopyran-4-ylmethyl) amide]	20 to 300	> 50	
O=C(NCC1CCSCC1)c1cnc(Nc2ccc(Cl)cc2Cl)nc1C(F)(F)F [Example 256, 2-(2,4-Dichlorophenylamino)-4-trifluoromethyl-pyrimidin-5-carboxylic acid (tetrahydrothiopyran-4-ylmethyl) amide]	20 to 300	> 50	
O=C(NCC1CCC1)c1cnc(Nc2ccccc2Cl)nc1C(F)(F)F [Example 257, 2-(2-Chlorophenylamino)-4-trifluoromethyl-pyrimidine-5-carboxylic acid cyclobutylmethyl-amide]	300 to 1000	> 50	
O=C(NCC1CCC1)c1cnc(Nc2cc(F)cc(C(F)(F)F)c2)nc1C(F)(F)F [Example 258, 2-(3-Fluoro-5-trifluoromethylphenylamino)-4-trifluoromethyl-pyrimidine-5-carboxylic acid cyclobutylmethyl-amide]	300 to 1000	> 50	
Cc1ccc(Cl)cc1Nc1ncc(C(=O)NCC2CCC2)c(C(F)(F)F)n1 [Example 259, 2-(5-Chloro-2-methylphenylamino)-4-trifluoromethyl-pyrimidine-5-carboxylic acid cyclobutylmethyl-amide]	300 to 1000	> 50	
O=C(NCc1ccccc1)c1cnc(Nc2cccc(Cl)c2)nc1C(F)(F)F [Example 266, 2-(3-Chlorophenylamino)-4-trifluoromethylpyrimidine-5-carboxylic acid benzyl-amide]	20 to 300	> 50	
O=C(NCc1ccncc1)c1cnc(Nc2cccc(Cl)c2)nc1C(F)(F)F [Example 267, 2-(3-Chlorophenylamino)-4-trifluoromethylpyrimidine-5-carboxylic acid (pyridin-4-ylmethyl)amide]	20 to 300		
CN(Cc1ccccc1)C(=O)c1cnc(Nc2cccc(Cl)c2)nc1C(F)(F)F [Example 268, 2-(3-Chlorophenylamino)-4-trifluoromethylpyrimidine-5-carboxylic acid N-benzyl-N-methylamide]	20 to 300		
COc1ccc(CNC(=O)c2cnc(Nc3cccc(Cl)c3)nc2C(F)(F)F)cc1 [Example 269, 2-(3-Chlorophenylamino)-4-trifluoromethylpyrimidine-5-carboxylic acid 4-methoxybenzyl-amide]	20 to 300	> 50	
O=C(NCc1ccc(F)cc1)c1cnc(Nc2cccc(Cl)c2)nc1C(F)(F)F [Example 270, 2-(3-Chlorophenylamino)-4-trifluoromethylpyrimidine-5-carboxylic acid 4-fluorobenzyl-amide]			20 to 300
N#Cc1ccc(CNC(=O)c2cnc(Nc3cccc(Cl)c3)nc2C(F)(F)F)cc1 [Example 271, 2-(3-Chlorophenylamino)-4-trifluoromethylpyrimidine-5-carboxylic acid 4-cyanobenzyl-amide]	20 to 300	> 50	
CN(Cc1ccccc1)C(=O)c1cnc(Nc2cccc(Cl)c2Cl)nc1C(F)(F)F [Example 272, 2-(2,3-Dichlorophenylamino)-4-trifluoromethylpyrimidine-5-carboxylic acid N-benzyl-N-methylamide]	20 to 300		
O=C(NCc1ccccc1)c1cnc(Nc2ccc(Cl)cc2Cl)nc1C(F)(F)F [Example 273, 2-(2,4-Dichlorophenylamino)-4-trifluoromethylpyrimidine-5-carboxylic acid benzyl-amide]	20 to 300		

SMILES	EC50 [1] [nM]	Emax [%]	EC50 [2] [nM]
O=C(NCc1ccccc1)c1cnc(Nc2ccc(Cl)c(Cl)c2)nc1C(F)(F)F [Example 274, 2-(3,4-Dichlorophenylamino)-4-trifluoromethylpyrimidine-5-carboxylic acid benzyl-amide]	20 to 300		
CN(Cc1ccccc1)C(=O)c1cnc(Nc2c(Cl)cccc2Cl)nc1C(F)(F)F [Example 275, 2-(2,6-Dichlorophenylamino)-4-trifluoromethylpyrimidine-5-carboxylic acid N-benzyl-N-methylamide]	20 to 300		
O=C(NCc1ccccc1)c1cnc(Nc2cc(Cl)cc(Cl)c2)nc1C(F)(F)F [Example 276, 2-(3,5-Dichlorophenylamino)-4-trifluoromethylpyrimidine-5-carboxylic acid benzyl-amide]	20 to 300		
O=C(NCc1ccccc1)c1cnc(Nc2cccc(F)c2)nc1C(F)(F)F [Example 277, 2-(3-Fluorophenylamino)-4-trifluoromethylpyrimidine-5-carboxylic acid benzyl-amide]	20 to 300	> 50	
O=C(NCc1ccccc1)c1cnc(Nc2cccc(Br)c2)nc1C(F)(F)F [Example 278, 2-(3-Bromophenylamino)-4-trifluoromethylpyrimidine-5-carboxylic acid benzyl-amide]	20 to 300	> 50	
CN(Cc1ccccc1)C(=O)c1cnc(Nc2cccc(Br)c2)nc1C(F)(F)F [Example 279, 2-(3-Bromophenylamino)-4-trifluoromethylpyrimidine-5-carboxylic acid N-benzyl-N-methylamide]	20 to 300		
COc1ccccc1Nc1ncc(C(=O)NCc2ccccc2)c(C(F)(F)F)n1 [Example 280, 2-(2-Methoxyphenylamino)-4-trifluoromethylpyrimidine-5-carboxylic acid benzyl-amide]	20 to 300	> 50	
O=C(NCc1ccncc1)c1cnc(Nc2cccc(Cl)c2Cl)nc1C(F)(F)F [Example 281, 2-(2,3-Dichlorophenylamino)-4-trifluoromethylpyrimidine-5-carboxylic acid (pyridin-4-ylmethyl)amide]	20 to 300		
O=C(NCc1ccncc1)c1cnc(Nc2ccc(Cl)cc2Cl)nc1C(F)(F)F [Example 282, 2-(2,4-Dichlorophenylamino)-4-trifluoromethylpyrimidine-5-carboxylic acid (pyridin-4-ylmethyl)amide]	20 to 300		
O=C(NCc1ccncc1)c1cnc(Nc2ccc(Cl)c(Cl)c2)nc1C(F)(F)F [Example 283, 2-(3,4-Dichlorophenylamino)-4-trifluoromethylpyrimidine-5-carboxylic acid (pyridin-4-ylmethyl)amide]	20 to 300		
O=C(NCc1ccncc1)c1cnc(Nc2cc(Cl)ccc2Cl)nc1C(F)(F)F [Example 284, 2-(2,5-Dichlorophenylamino)-4-trifluoromethylpyrimidine-5-carboxylic acid (pyridin-4-ylmethyl)amide]	20 to 300		
O=C(NCc1ccncc1)c1cnc(Nc2cccc(F)c2)nc1C(F)(F)F [Example 285, 2-(3-Fluorophenylamino)-4-trifluoromethylpyrimidine-5-carboxylic acid (pyridin-4-ylmethyl)amide]	20 to 300		
O=C(NCc1ccncc1)c1cnc(Nc2cccc(Br)c2)nc1C(F)(F)F [Example 286, 2-(3-Bromophenylamino)-4-trifluoromethylpyrimidine-5-carboxylic acid (pyridin-4-ylmethyl)amide]	20 to 300		
O=C(NCc1ccncc1)c1cnc(Nc2cc(Cl)cc(Cl)c2)nc1C(F)(F)F [Example 287, 2-(3,5-Dichlorophenylamino)-4-trifluoromethylprimidine-5-carboxylic acid (pyridin-4-ylmethyl)amide]	20 to 300		
O=C(NCc1ccc(F)cc1)c1cnc(Nc2cccc(F)c2)nc1C(F)(F)F [Example 288, 2-(3-Fluorophenylamino)-4-trifluoromethylpyrimidine-5-carboxylic acid 4-fluorobenzyl-amide]	20 to 300		
O=C(NCc1ccc(F)cc1)c1cnc(Nc2cccc(Br)c2)nc1C(F)(F)F [Example 289, 2-(3-Bromophenylamino)-4-trifluoromethylpyrimidine-5-carboxylic acid 4-fluorobenzyl-amide]			20 to 300
O=C(NCc1ccc(F)cc1)c1cnc(Nc2cc(Cl)cc(Cl)c2)nc1C(F)(F)F [Example 290, 2-(3,5-Dichlorophenylamino)-4-trifluoromethylpyrimidine-5-carboxylic acid 4-fluorobenzyl-amide]	20 to 300		
N#Cc1ccc(CNC(=O)c2cnc(Nc3cc(Cl)cc(Cl)c3)nc2C(F)(F)F)cc1 [Example 291, 2-(3,5-Dichlorophenylamino)-4-trifluoromethylpyrimidine-5-carboxylic acid 4-cyanobenzylamide]	20 to 300		
